From PMC4980415 (Psychopharmacology, 2016)
Where a name gives a salt, the structure may show the parent alone. Read-outs that look alike come from different tables or passages of the source.

Columns and labels:
PDE1 (bovine brain) = experiment: PDE activity IMAP assay, bovine brain PDE1; type: biochemical; conditions: Fl-cGMP substrate, CaCl2/calmodulin
PDE1 isoforms = experiment: PDE1 potency and selectivity versus other PDE families; type: biochemical; conditions: span of Table 1 values; read-out: Ki for inhibition of recombinant or bovine PDE1 enzymes
[1] = molecular target: T1, Potassium channel I[Kr], (hERG) (Homo sapiens, UniProt Q12809); experiment: Off-target binding, General SEP II panel; conditions: 10 μM ITI-214, mean of n = 2
T1 construct: Caliper Life Sciences (contract screen)
T1 sequence (Q12809 whole entry): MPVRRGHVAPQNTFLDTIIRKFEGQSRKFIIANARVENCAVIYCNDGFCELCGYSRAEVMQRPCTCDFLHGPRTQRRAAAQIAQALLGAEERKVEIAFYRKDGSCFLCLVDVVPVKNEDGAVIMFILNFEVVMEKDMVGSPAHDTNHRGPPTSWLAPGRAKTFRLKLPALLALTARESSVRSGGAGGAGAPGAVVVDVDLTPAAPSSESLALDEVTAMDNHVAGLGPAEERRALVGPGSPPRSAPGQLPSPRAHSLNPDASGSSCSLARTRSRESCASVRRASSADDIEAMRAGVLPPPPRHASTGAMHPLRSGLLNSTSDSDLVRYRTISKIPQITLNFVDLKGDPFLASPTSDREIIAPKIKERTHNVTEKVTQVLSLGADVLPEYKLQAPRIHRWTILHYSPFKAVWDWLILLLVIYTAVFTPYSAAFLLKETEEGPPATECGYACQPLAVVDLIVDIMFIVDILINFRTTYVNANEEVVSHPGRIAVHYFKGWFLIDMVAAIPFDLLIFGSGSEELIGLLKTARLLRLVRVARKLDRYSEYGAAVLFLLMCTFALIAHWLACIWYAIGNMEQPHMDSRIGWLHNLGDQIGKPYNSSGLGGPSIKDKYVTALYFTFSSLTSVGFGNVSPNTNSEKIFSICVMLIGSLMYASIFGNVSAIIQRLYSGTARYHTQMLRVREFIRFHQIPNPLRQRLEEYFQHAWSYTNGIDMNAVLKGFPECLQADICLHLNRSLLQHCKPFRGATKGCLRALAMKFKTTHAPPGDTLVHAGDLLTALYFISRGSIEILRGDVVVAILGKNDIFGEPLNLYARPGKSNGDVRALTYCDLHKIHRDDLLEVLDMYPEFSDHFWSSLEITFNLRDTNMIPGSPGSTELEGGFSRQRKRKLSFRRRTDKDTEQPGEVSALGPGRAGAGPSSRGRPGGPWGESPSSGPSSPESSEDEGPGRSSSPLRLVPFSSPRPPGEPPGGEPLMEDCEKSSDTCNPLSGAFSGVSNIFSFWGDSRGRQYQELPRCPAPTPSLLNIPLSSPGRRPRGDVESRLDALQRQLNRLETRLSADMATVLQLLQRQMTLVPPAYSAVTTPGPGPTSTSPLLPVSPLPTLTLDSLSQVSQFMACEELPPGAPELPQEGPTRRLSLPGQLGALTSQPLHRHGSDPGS

H3 (h), histamine = molecular target: T2, H3 (h), histamine (Homo sapiens, UniProt Q9Y5N1); experiment: Off-target binding, General SEP II panel; conditions: 10 μM ITI-214, mean of n = 2
T2 construct: Caliper Life Sciences (contract screen)
T2 sequence (Q9Y5N1 whole entry): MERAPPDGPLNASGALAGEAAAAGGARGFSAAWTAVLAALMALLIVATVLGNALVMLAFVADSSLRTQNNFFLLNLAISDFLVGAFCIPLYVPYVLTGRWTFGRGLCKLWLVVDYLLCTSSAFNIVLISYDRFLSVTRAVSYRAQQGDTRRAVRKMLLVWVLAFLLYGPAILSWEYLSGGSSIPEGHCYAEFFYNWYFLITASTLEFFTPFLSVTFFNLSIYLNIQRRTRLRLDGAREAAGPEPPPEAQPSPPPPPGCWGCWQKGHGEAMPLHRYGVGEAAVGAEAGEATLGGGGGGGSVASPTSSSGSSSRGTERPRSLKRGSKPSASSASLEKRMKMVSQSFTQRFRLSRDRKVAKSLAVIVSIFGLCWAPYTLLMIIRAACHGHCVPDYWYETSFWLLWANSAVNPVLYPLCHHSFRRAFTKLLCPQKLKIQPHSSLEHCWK

B2 (H), bradykinin = molecular target: T3, B2 (H), bradykinin (Homo sapiens, UniProt P30411); experiment: Off-target binding, General SEP II panel; conditions: 10 μM ITI-214, mean of n = 2
T3 construct: Caliper Life Sciences (contract screen)
T3 sequence (P30411 1-391): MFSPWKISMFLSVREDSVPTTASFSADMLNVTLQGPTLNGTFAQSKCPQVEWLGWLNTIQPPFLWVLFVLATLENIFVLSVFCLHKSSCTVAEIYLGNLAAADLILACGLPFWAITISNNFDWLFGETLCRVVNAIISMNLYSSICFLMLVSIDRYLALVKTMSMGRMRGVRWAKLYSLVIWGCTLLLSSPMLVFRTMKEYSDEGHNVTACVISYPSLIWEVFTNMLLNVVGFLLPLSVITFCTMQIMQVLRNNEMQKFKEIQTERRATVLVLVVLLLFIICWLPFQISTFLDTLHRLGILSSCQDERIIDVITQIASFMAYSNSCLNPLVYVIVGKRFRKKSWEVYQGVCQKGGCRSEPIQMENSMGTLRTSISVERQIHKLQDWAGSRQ

[2] = tested on: memory retrieval in male Wistar rats; experiment: Novel object recognition (NOR): retrieval, drug 2 h before T2; type: in vivo, rat; conditions: for Exploration time e1 (T1) / Exploration time e2 (T2): 2 h before T2, 24 h interval
Protocol: (§1) The drug was administered, per os (po), by gavage to rats in a volume of 2 ml/kg body weight. Oral dosing solutions were prepared fresh daily. […] The pH of the dosing solution was adjusted to ~pH 5.5 by dropwise addition of 0.1 N NaOH in saline and volume adjusted by addition of saline in preparation for intraperitoneal (ip) dosing. […] Control treatments were always the vehicle solutions of the corresponding drugs.
(§2) The object recognition test was performed as described elsewhere (Ennaceur and Delacour [1988]; Akkerman et al. 2014). The apparatus consisted of a circular arena, 83 cm in diameter. Half of the 40-cm-high wall was made of gray polyvinyl chloride, the other half of transparent polyvinyl chloride. The light intensity was equal in the different parts of the apparatus, as fluorescent red tubes provided a constant illumination of about 20 lx on the floor of the apparatus. Two objects were placed in a symmetrical position at about 10 cm from the gray wall. Four different sets of objects were used. The different objects were (1) a cone consisting of a gray polyvinyl chloride base (maximal diameter 18 cm) with a collar on top made of brass (total height 16 cm), (2) a standard 1 L transparent glass bottle (diameter 10 cm, height 22 cm) filled with water, (3) a large metal cube (10.0 × 5.0 × 7.5 cm) with two holes (diameter 1.9 cm), and (4) a large aluminum cube with a tapering top (13.0 × 8.0 × 8.0 cm). The objects used in this study were carefully selected to be “novelty neutral,” that is to say the rats have no innate preference for one over the other. In all cases, objects were of sufficient size and weight that rats could not move the objects.
(§3) A testing session consisted of two trials. The duration of each trial was 3 min. During the first trial (T1), the apparatus contained two identical objects (samples). Rats were placed in the apparatus facing the wall at the middle of the front (transparent) segment. After the first exploration period, the rat was put back in its home cage. Subsequently, after a 24-h delay interval, the rat was put in the apparatus for the second trial (T2). The times spent in exploring each object during T1 and T2 were recorded manually using a personal computer.
(§4) Exploration was defined as follows: directing the nose to the object at a distance of no more than 2 cm and/or touching the object with the nose. Sitting on the object was not considered as exploratory behavior. In order to avoid the presence of olfactory cues, the objects were always thoroughly cleaned with a 70 % ethanol solution before each trial. All combinations and locations of objects were used in a balanced manner to reduce potential biases due to preferences for particular locations or objects.
(§5) During the first 2 weeks after animal arrival, the animals were handled daily. They were then adapted to the procedure over the period of 2 days by allowing them to explore the apparatus (without any objects) for 3 min twice each day. […] After this, the rats were assigned to treatment conditions in a balanced manner, thereby insuring an equal distribution of object combinations among the treatment conditions. […] In all experiments, a 24-h inter-trial interval was used. In all cases, the experimenter was unaware of the treatment conditions that were being tested.
(§6) The basic measure recorded was the time spent by each rat exploring an object during T1 and T2. The time spent in exploring the two identical samples was represented by “a1” and “a2.” The time spent in T2 in exploring the sample and new object was represented by “a” and “b,” respectively. The following variables were calculated: e1 = a1 + a2, e2 = a + b, and d2 = (b − a) / e2. The e1 and e2 are measures of the total exploration time of both objects during T1 and T2, respectively. Differences in exploration times between treatment conditions were analyzed using a t test or one-way ANOVA. […]

[3] = tested on: late memory consolidation in male Wistar rats; experiment: Novel object recognition (NOR): late consolidation, drug 3 h after T1; type: in vivo, rat; conditions: for Exploration time e1 (T1) / Exploration time e2 (T2): 3 h after T1
Protocol: as §1, §2, §3, §4, §5, §6

[4] = Pharmacokinetics of ITI-214 in rats; type: in vivo; conditions: rat, oral; for concentration at 2 h: 3 mg/kg
Text: Standard methods of tissue extraction were used.

[5] = healthy volunteers and patients with schizophrenia; no reference given; cited from earlier work

CN1C(=O)c2c(nn(Cc3ccc(-c4cccc(F)n4)cc3)c2Nc2ccccc2)N2C1=N[C@@H]1CCC[C@@H]12 [ITI-214, (6aR,9aS)-2-(4-(6-fluoropyridin-2-yl)benzyl)-5-methyl-3-(phenylamino)-5,6a,7,8,9,9a-hexahydrocyclopenta-[4,5]imidazo[1,2-a]pyrazolo[4,3-e]pyrimidin-4-(2H)-one phosphate salt]
Ki (PDE1 (bovine brain)): 0.058 nM
Ki (PDE1 isoforms): 0.034 to 0.058 nM
% Binding [1]: 35.09%
% Binding (H3 (h), histamine): 32.54%
% Binding (B2 (H), bradykinin): 30.79%
Exploration time e1 (T1) ([2]; 0.1 mg/kg po): 29.32 (1.82) s
Exploration time e2 (T2) ([2]; 0.1 mg/kg po): 28.78 (2.08) s
Exploration time e1 (T1) ([2]; 0.3 mg/kg po): 28.83 (1.84) s
Exploration time e2 (T2) ([2]; 0.3 mg/kg po): 29.31 (1.52) s
Exploration time e1 (T1) ([2]; 1 mg/kg po): 26.81 (1.72) s
Exploration time e2 (T2) ([2]; 1 mg/kg po): 33.64 (2.35) s
Exploration time e1 (T1) ([2]; 3 mg/kg po): 27.20 (1.90) s
Exploration time e2 (T2) ([2]; 3 mg/kg po): 28.60 (1.13) s
Exploration time e1 (T1) ([2]; 10 mg/kg po): 30.59 (1.98) s
Exploration time e2 (T2) ([2]; 10 mg/kg po): 30.52 (1.87) s
full effective dose (d2 different from chance and from vehicle), retrieval ([2]; po 2 h before T2): 1 mg/kg
effect on exploratory behavior during T1 or T2 ([2]; retrieval and combined sub-threshold dose experiments): no effect on exploratory behavior
Exploration time e1 (T1) ([3]; 0.1 mg/kg po): 26.20 (1.95) s
Exploration time e2 (T2) ([3]; 0.1 mg/kg po): 32.81 (2.24) s
Exploration time e1 (T1) ([3]; 0.3 mg/kg po): 29.36 (3.22) s
Exploration time e2 (T2) ([3]; 0.3 mg/kg po): 29.64 (2.15) s
Exploration time e1 (T1) ([3]; 1 mg/kg po): 25.93 (1.53) s
Exploration time e2 (T2) ([3]; 1 mg/kg po): 27.86 (2.43) s
Exploration time e1 (T1) ([3]; 3 mg/kg po): 25.62 (1.89) s
Exploration time e2 (T2) ([3]; 3 mg/kg po): 28.34 (2.95) s
effect on exploratory behavior ([3]; early and late consolidation experiments): no effects on exploratory behavior
full effective dose (d2 different from chance and from vehicle), late consolidation ([3]; po 3 h after T1): 1 mg/kg
Tmax ([4]; brain): ~1.5 h
concentration at 2 h ([4]; brain, plasma levels associated with optimal effects on acquisition, read-out: brain free fraction estimated): 0.12 nM
concentration at 2 h ([4]; plasma, 2 h after drug administration, N = 12 rats, read-out: plasma level): 30.1 ± 13.4 ng/mL
concentration at 2 h ([4]; plasma, 2 h after drug administration, read-out: free plasma concentration): 0.12 nM
safety and tolerability [5]: safe and well-tolerated
